In US11286263B2, “Macrocyclic fluorine substituted indole derivatives” (The Broad Institute, Inc., priority 2017, dated 2022):

Biological target: BCL-XL (Homo sapiens (Human), UniProt Q07817)
Assay: Protein-protein interaction assay BCL-XL/Bad BH3 peptide (BCL-XL assay), TR-FRET
Type: binding
Conditions: median
Protocol: Assay 2 Protein-Protein Interaction Assay: BCL-XL/Bad BH3 Peptide (BCL-XL Assay)
The dose-dependent inhibition by the compounds described in this invention of the interaction between BCL-XL and the BH3 domain of Bad (both human) was determined using a steady state binding competition assay with time-resolved fluorescence energy transfer (TR-FRET) readout. For that purpose BCL-XL (amino acids 1-212, C-terminal fused to a hexahistidine (6× His) tag (SEQ ID 3) and a synthetic Bad BH3-derived peptide of sequence Biotin-PEG2-PEG2-NLWAAQRYGRELRR-Nle-SDEFVDSFKK-amide (SEQ ID 4) served as protein receptor and tracer ligand respectively. The recombinant BCL-XL protein (expressed in Ecol) was purchased from BPS Bioscience (San Diego, Calif., USA). The Bad BH3-derived peptide can be obtained from e.g. Biosyntan (Berlin, Germany).
In the assay 11 different concentrations of each compound (0.1 nM, 0.33 nM, 1.1 nM, 3.8 nM, 13 nM, 44 nM, 0.15 μM, 0.51 μM, 1.7 μM, 5.9 μM and 20 μM) were typically measured as duplicates in the same microtiter plate. For that, 100-fold concentrated DMSO solutions were prepared by serial dilutions (1:3.4) of a 2 mM stock solution in a clear, 384-well microtiter plate (Greiner Bio-One, Frickenhausen, Germany). From there, 50 nl were transferred in a dark test plate (Greiner Bio-One, Frickenhausen, Germany). The assay was initiated by addition of 2 μl of a 2,5-fold concentrated His-BCL-XL solution (usually for a 1 nM end concentration in 5 μl reaction volume) in aqueous assay buffer [50 mM Tris/HCl pH 7, 100 mM sodium chloride (NaCl), 50 μM potassium fluoride (KF), 0.005% Tween-20, 2 mM DTT, 0.1% bovine gamma globulin (BGG)] to the compounds in the assay plate. This was followed by a 10-minute incubation step at 22° C. for pre-equilibration of the putative complex between His-BCL-XL and the compounds. After that, 3 μl of a 1.67-fold concentrated solution (in assay buffer) consisting of Bad BH3-derived peptide (1 nM end concentration) and TR-FRET detection reagents [1.67 nM anti-His-Eu cryptate and 1.67 nM streptavidin-XL665 (both from Cisbio Bioassays, Codolet, France)], were added.
The mixture was incubated in the dark for one hour at 22° C. and then overnight at 4° C. The formation of BCL-XL/Bad complexes was determined by measuring the resonance energy transfer of the anti-His-Eu-cryptate antibody to the streptavidin-XL665 present in the reaction. For that purpose, the fluorescence emission at 620 nm and 665 nm after excitation at 330-350 nm was measured in a TR-FRET measuring instrument, for instance a Rubystar or a Pherastar (both from BMG Lab Technologies, Offenburg, Germany) or a Viewlux (Perkin-Elmer). The ratio of the emission at 665 nm and at 622 nm was used as indicator of the amount of BCL-XL/Bad complexes present.
The resulting data (ratio) were normalized, taking 0% inhibition as the mean value of control measurements (usually 32 data points) where all reagents were included. In this case 50 nl DMSO were used instead of compounds. A 100% inhibition corresponded to the mean value of control measurements (usually 32 data points) where all reagents except BCL-XL were included. IC50 values were determined by regression analysis based on a 4 parameter equation (minimum, maximum, IC50, Hill; Y=Max+(Min−Max)/(1+(X/IC50)^Hill) using the Screener Software (Genedata).

Chain of BCL-XL (Q07817 1-212): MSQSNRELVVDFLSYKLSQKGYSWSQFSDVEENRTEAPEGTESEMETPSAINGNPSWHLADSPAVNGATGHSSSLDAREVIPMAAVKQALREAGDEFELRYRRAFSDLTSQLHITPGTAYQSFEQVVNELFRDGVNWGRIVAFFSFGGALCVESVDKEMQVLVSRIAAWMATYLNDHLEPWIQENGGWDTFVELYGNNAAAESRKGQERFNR

Compound | IC50
Cc1c2c(nn1C)COCCCCn1c(C(=O)O)c(CCCOc3ccc(F)c4ccccc34)c3ccc(F)c-2c31 (single isomer, unassigned; enantiomer 1) [Example 16, 4-fluoro-7-{3-[(4-fluoronaphthalen-1-yl)oxy]propyl}-2,3-dimethyl-2,10,11,12,13,15-hexahydro-pyrazolo[4′,3′:9,10][1,6]oxazacycloundecino[8,7,6-hi]indole-8-carboxylic acid (enantiomer 1)] | > 20 µM
Cc1c2c(nn1C)COCCCCn1c(C(=O)O)c(CCCOc3ccc(F)c4ccccc34)c3ccc(F)c-2c31 (racemic) [Example 15, (rac)-13-fluoro-1-(3-((4-fluoronaphthalen-1-yl)oxy)propyl)-11,12-dimethyl-4,5,6,7,9,11-hexahydropyrazolo[4′,3′:9,10][1]oxa[6]azacycloundecino[8,7,6-hi]indole-2-carboxylic acid] | > 20 µM
Cc1c2c(nn1C)CNCCCCn1c(C(=O)O)c(CCCOc3cccc4ccccc34)c3ccc(F)c-2c31 (single isomer, unassigned; enantiomer 1) [Example 48, 4-fluoro-2,3-dimethyl-7-{3-[(naphthalen-1-yl)oxy]propyl}-10,11,12,13,14,15-hexahydro-2H-pyrazolo[3′,4′:8,9][1,6]diazacycloundecino[10,11,1-hi]indole-8-carboxylic acid (enantiomer 1)] | > 20 µM
Cc1nn(C)c2c1-c1c(F)ccc3c(CCCOc4cccc5c4CCCC5)c(C(=O)O)n(c13)CCCCOC2 (racemic) [Example 34, (rac)-13-fluoro-10,12-dimethyl-1-(3-((5,6,7,8-tetrahydronaphthalen-1-yl)oxy)propyl)-4,5,6,7,9,10-hexahydropyrazolo[4′,3′:9,10][1]oxa[6]azacycloundecino[8,7,6-hi]indole-2-carboxylic acid] | > 20 µM
CCc1nn(C)c2c1-c1c(F)ccc3c(CCCOc4cccc5c4CCC5)c(C(=O)O)n(c13)CCCCOC2 (racemic) [Example 45, (rac)-1-(3-((2,3-dihydro-1H-inden-4-yl)oxy)propyl)-12-ethyl-13-fluoro-10-methyl-4,5,6,7,9,10-hexahydropyrazolo[4′,3′:9,10][1]oxa[6]azacycloundecino[8,7,6-hi]indole-2-carboxylic acid] | > 20 µM
(rac)-1-(3-((2,3-dihydro-1H-inden-4-yl)oxy)propyl)-12-ethyl-13-fluoro-11-methyl-4,5,6,7,9,11-hexahydropyrazolo[4′,3′:9,10][1]oxa[6]azacycloundecino[8,7,6-hi]indole-2-carboxylic acid [Example 30] | > 20 µM
Cc1nn(C)c2c1-c1c(F)ccc3c(CCCOc4cccc5cc(F)ccc45)c(C(=O)O)n(c13)CCCCOC2 (racemic) [Example 32, (rac)-13-fluoro-1-(3-((6-fluoronaphthalen-1-yl)oxy)propyl)-10,12-dimethyl-4,5,6,7,9,10-hexahydropyrazolo[4′,3′:9,10][1]oxa[6]azacycloundecino[8,7,6-hi]indole-2-carboxylic acid] | > 20 µM
CCc1c2c(nn1C)CN(C)CCCCn1c(C(=O)O)c(CCCOc3cccc4ccccc34)c3ccc(F)c-2c31 (racemic) [Example 54, (rac)-3-ethyl-4-fluoro-2,14-dimethyl-7-[3-(1-naphthyloxy)propyl]-10,11,12,13,14,15-hexahydro-2H-pyrazolo[3′,4′:8,9][1,6]diazacycloundecino[10,11,1-hi]indole-8-carboxylic acid] | > 20 µM
CCc1c2c(nn1C)CN(C)CCCCn1c(C(=O)O)c(CCCOc3cccc4c3CCCC4)c3ccc(F)c-2c31 (racemic) [Example 52, (rac)-3-ethyl-4-fluoro-2,14-dimethyl-7-[3-(5,6,7,8-tetrahydronaphthalen-1-yloxy)propyl]-10,11,12,13,14,15-hexahydro-2H-pyrazolo[3′,4′:8,9][1,6]diazacycloundecino[10,11,1-hi]indole-8-carboxylic acid] | > 20 µM
Cc1c2c(nn1C)COC/C=C\Cn1c(C(=O)O)c(CCCOc3cccc4ccccc34)c3ccc(F)c-2c31 (racemic) [Example 1, (rac)-(11Z)-4-fluoro-2,3-dimethyl-7-[3-(naphthalen-1-yloxy)propyl]-2,10,13,15-tetrahydro-pyrazolo[4′,3′:9,10][1,6]oxazacycloundecino[8,7,6-hi]indole-8-carboxylic acid] | > 20 µM
Cc1nn(C)c2c1-c1c(F)ccc3c(CCCOc4cccc5ccccc45)c(C(=O)O)n(c13)C/C=C\COC2 (racemic) [Example 9, (rac)-(Z)-13-fluoro-10,12-dimethyl-1-(3-(naphthalen-1-yloxy)propyl)-4,7,9,10-tetrahydro-pyrazolo[4′,3′:9,10][1]oxa[6]azacycloundecino[8,7,6-hi]indole-2-carboxylic acid] | > 20 µM
CCc1nn(C)c2c1-c1c(F)ccc3c(CCCOc4cc(C)c(Cl)c(C)c4)c(C(=O)O)n(c13)CCCCOC2 (racemic) [Example 46, (rac)-1-(3-(4-chloro-3,5-dimethylphenoxy)propyl)-12-ethyl-13-fluoro-10-methyl-4,5,6,7,9,10-hexahydropyrazolo[4′,3′:9,10][1]oxa[6]azacycloundecino[8,7,6-hi]indole-2-carboxylic acid] | > 20 µM
CCc1c2c(nn1C)CN(C)CCCCn1c(C(=O)O)c(CCCOc3cccc4cc(F)ccc34)c3ccc(F)c-2c31 (racemic) [Example 53, (rac)-3-ethyl-4-fluoro-7-{3-[(6-fluoro-1-naphthyhoxy]propyl}-2,14-dimethyl-10,11,12,13,14,15-hexahydro-2H-pyrazolo[3′,4′:8,9][1,6]diazacycloundecino[10,11,1-hi]indole-8-carboxylic acid] | > 20 µM
Cc1c2c(nn1C)COCCCCn1c(C(=O)O)c(CCCOc3cccc4c3CCC4)c3ccc(F)c-2c31 (racemic) [Example 19, (rac)-1-(3-((2,3-dihydro-1H-inden-4-yl)oxy)propyl)-13-fluoro-11,12-dimethyl-4,5,6,7,9,11-hexahydropyrazolo[4′,3′:9,10][1]oxa[6]azacycloundecino[8,7,6-hi]indole-2-carboxylic acid] | > 20 µM
CCc1c2c(nn1C)COC/C=C\Cn1c(C(=O)O)c(CCCOc3cccc4ccccc34)c3ccc(F)c-2c31 (racemic) [Example 5, (rac)-(11Z)-3-ethyl-4-fluoro-2-methyl-7-[3-(naphthalen-1-yloxy)propyl]-2,10,13,15-tetrahydro-pyrazolo[4′,3′:9,10][1,6]oxazacycloundecino[8,7,6-hi]indole-8-carboxylic acid] | > 20 µM
CCc1c2c(nn1C)COCCCCn1c(C(=O)O)c(CCCOc3cccc4c3CCCC4)c3ccc(F)c-2c31 (racemic) [Example 29, (rac)-12-ethyl-13-fluoro-11-methyl-1-(3-((5,6,7,8-tetrahydronaphthalen-1-yl)oxy)propyl)-4,5,6,7,9,11-hexahydropyrazolo[4′,3′:9,10][1]oxa[6]azacycloundecino[8,7,6-hi]indole-2-carboxylic acid] | > 20 µM
Cc1cc(OCCCc2c(C(=O)O)n3c4c(c(F)ccc24)-c2c(nn(C)c2C)COCCCC3)cc(C)c1Cl (racemic) [Example 20, (rac)-1-(3-(4-chloro-3,5-dimethylphenoxy)propyl)-13-fluoro-11,12-dimethyl-4,5,6,7,9,11-hexahydropyrazolo[4′,3′:9,10][1]oxa[6]azacycloundecino[8,7,6-hi]indole-2-carboxylic acid] | > 20 µM
